Laboratory results from patent US11215608B2, “Methods of determining cellular chemosensitivity” (Dana-Farber Cancer Institute, Inc., priority 2006, dated 2022).

Tests used:
CLL mitochondria = test: Cytochrome c release from CLL mitochondria; format: biochemical, human; conditions: peptides or compounds 100 μM
Method: Alternatively, mitochondria were purified from freshly isolated CLL cells and cell lines by mechanical disruption followed by differential centrifugation, as previously described (Letai et al., 2002). Mitochondrial suspensions were made at 0.5 mg protein/ml, except for the case of ABT-737 and negative control enantiomer treatments, where 0.1 mg/ml was used. Release of cytochrome c was determined by a comparison of cytochrome c in the pellet and supernatant quantitated by ELISA (R&D systems).
CLL mitochondria were incubated with BH3 peptides as well as ABT-737 and negative control enantiomer (FIG. 14). […] This pattern is diagnostic of mitochondrial BCL-2 dependence. […] Since the BH3 peptides in the sensitizer panel lack the ability to directly activate BAX and BAK, these experiments also implicated the presence of an activator molecule constitutively sequestered by BCL-2 in CLL.

GST-MCL-1 = target: T1, GST-MCL-1 (Homo sapiens, UniProt Q07820); test: BIM BH3 displacement by fluorescence polarization; format: binding; conditions: 25 nM fluorescein-linked BIM BH3, 0.1 uM GST-MCL-1
T1 construct: In each case, the C-terminus transmembrane domain was truncated to maintain solubility in aqueous solution; made in house; host or cells: bacteria (construct a gift of Tilman Oltersdorf)
Method: (§1) Binding assays were performed using fluorescence polarization as previously described (Letai et al., 2002). A minimum of three independent experiments were used to determine each dissociation constant.
(§2) As one test of this hypothesis, the ability of sensitizer peptides to displace tBID from antiapoptotic protein Bcl-w was examined utilizing a GST-pulldown assay. Proteins bound to glutathioneagarose beads were eluted with glutathione and analyzed by Western blot. In FIG. 3A, tBID is displaced from BC1-w by sensitizer BH3 peptides in a pattern that replicates the pattern in FIG. 1D. […] These experiments support the ability of sensitizer BH3 peptides to displace activators from the antiapoptotic binding cleft.

mouse liver mitochondria = test: Cytochrome c release from mouse liver mitochondria; format: biochemical; conditions: no tBID, also at 10-fold higher concentrations
Method: (§3) Mitochondria were purified from liver and FL5.12cells as previously described (Letai et al., 2002). Mitochondria were purified from leukemia cells and 2B4 cells as previously described for FL5.12 cells. Mitochondria were incubated with treatments for 45 (mouse liver mitochondria) or 35 minutes (FL5.12, 2B4, and leukemic mitochondria). Release of cytochrome c was determined by a comparison of cytochrome c in the pellet and supernatant following treatment, quantitated by ELISA (R&D systems). When results of multiple experiments were averaged, results from solvent-only (DMSO) treatments values were subtracted from each, so that 0 release reflects that observed in solvent-only treatments.
To test if selective binding corresponded to ability of individual BH3 domains to selectively antagonize antiapoptotic function, a purified mitochondrial system was constructed in which the critical apoptosis decision making molecular machinery was reconstituted. […] The multidomain proapoptotic function was provided by the BAK which resides in mouse liver Mitochondria; mouse liver mitochondria contain no detectable BAX protein (Letai et al., 2002). The dominant antiapoptotic function was provided by one of the five different recombinant antiapoptotic proteins used in the binding assays. BH3 peptides provided the sensitizer function.
Furthermore, when the panel of sensitizer BH3 peptides was tested in the presence of the antiapoptotic protein BCL-XL, there was still no cytochrome c release, formally ruling out the possibility that the BH3 peptides were somehow directly converting antiapoptotic proteins to a proapoptotic function (FIG. 2). To induce MOMP and cytochrome c release, there appears to be an absolute requirement for an activator function, here provided by the tBID protein.

[1] = test system: FLAG-MCL-1-transfected 2B4 cells; test: BH3 peptides electroporated into dexamethasone-treated FLAG-MCL-1 2B4 cells; format: cell-based, murine; conditions: peptide transfected by electroporation
Source text: Percent killing was ascertained by Annexin-V staining. […] N=3 and the error bars represent the standard deviation.

SU-DHL6 = test: BH3 profiling, cytochrome c release from lymphoma mitochondria; format: biochemical; conditions: SU-DHL 6
Source text: (§4) BH3 profiling allows for the prediction of response of cancer cells to anti-cancer therapeutics. For the purposes of this application, therapeutics can be divided into those that target anti-apoptotic BCL-2 proteins, and conventional agents. As a model test system, four lymphoma cell lines SU-DHL4, SU-DHL6, SU-DHL8, and SU-DHL 10 were employed. To perform BH3 profiling, the ability of a panel of sensitizer peptides to induce mitochondrial outer membrane permeabilization (MOMP) in mitochondria isolated from the lymphoma cells were tested. […] MOMP was measured by quantifying cytochrome c release by ELISA.
SU-DHL4 and SU-DHL6 a “primed” phenotype, based on the sensitivity to sensitizer BH3 peptides. […] SU-DHL-10 responded poorly to both sensitizer and activator peptides, indicating the loss of the effector arm.

GST-BCL-2 = target: T2, GST-BCL-2 (Homo sapiens, UniProt P10415); test: BIM BH3 displacement by fluorescence polarization; format: binding; conditions: 25 nM fluorescein-linked BIM BH3, 0.5 uM GST-BCL-2
T2 construct: In each case, the C-terminus transmembrane domain was truncated to maintain solubility in aqueous solution; made in house; host or cells: bacteria
Method: as §1, §2

leukemic mitochondria = test: Cytochrome c release from BCL-2 dependent leukemia mitochondria; format: biochemical, mouse
Method: as §3
Leukemia prone mice were generated as previously described (Letai, 2004). Mouse experimental protocols conform to the relevant regulatory standards and were approved by the Dana-Farber Cancer Institute Animal Care and Use Committee.
Previous results have described a mouse acute lymphocytic leukemia model in which c-myc is constitutively expressed and human BCL-2 is repressibly expressed. In this model, when BCL-2 transgene expression is eliminated by administration of doxycycline, the leukemic cells undergo apoptosis, resulting in rapid resolution of the leukemia (Letai, 2004). This provides an ideal in vivo model of a BCL-2 dependent cancer. It was hypothesized that dependence on BCL-2 was due to a similar mechanism to that of the IL-3 deprived FL5.12-BCL-2 cells—that is, a death signal was being initiated and carried by an activator BH3 molecule, but BCL-2 was binding it and preventing its interaction with multidomain proapoptotic proteins.
Mitochondria were isolated from leukemia cells and exposed to sensitizer BH3 peptides. Subsequently, cytochrome c release was measured. As an internal control, mitochondria were isolated from liver from the leukemic mice in parallel (FIG. 8A).

BAX = BAX oligomerization / activation in mitochondria of IL-3 starved FL5.12-BCL-2 cells; format: biochemical, murine; conditions: peptides 30 uM, ABT-737 10 uM, 35 minutes
Method: Mitochondria were isolated from wt FL5.12 cells and FL5.12-BCL-2 cells in the presence of IL-3, and from FL5.12-BCL-2 cells following 24 hours of IL-3 deprivation. […] Mitochondrial pellets were subjected to chemical crosslinking as previously described (Letai et al., 2002).
This model predicts that BCL-2 acts upstream of BAX activation by intercepting activator BH3 molecules. To test this prediction, in FIG. 6E, immunoprecipitation was performed with an antibody that recognizes only the activated form of BAX which exposes an N-terminus epitope (Desagher ct al., 1999; Hsu and You le, 1997). wt or BCL-2 expressing FL5.12 cells were exposed to IL-3 withdrawal as indicated.

SU-DHL8 = test: BH3 profiling, cytochrome c release from lymphoma mitochondria; format: biochemical; conditions: SU-DHL-8
Source text: as §4

[2] = test system: SU-DHL4, SU-DHL6, SU-DHL8, SU-DHL 10; test: Lymphoma cell line sensitivity to agents; format: cell-based; conditions: four lymphoma cell lines compared
Method: Only cells that are dependent on BCL-2 for survival are predicted to respond to BCL-2 antagonists like ABT-737. […] To test this, cells were treated with vincristine.

T1 sequence (Q07820 1-327): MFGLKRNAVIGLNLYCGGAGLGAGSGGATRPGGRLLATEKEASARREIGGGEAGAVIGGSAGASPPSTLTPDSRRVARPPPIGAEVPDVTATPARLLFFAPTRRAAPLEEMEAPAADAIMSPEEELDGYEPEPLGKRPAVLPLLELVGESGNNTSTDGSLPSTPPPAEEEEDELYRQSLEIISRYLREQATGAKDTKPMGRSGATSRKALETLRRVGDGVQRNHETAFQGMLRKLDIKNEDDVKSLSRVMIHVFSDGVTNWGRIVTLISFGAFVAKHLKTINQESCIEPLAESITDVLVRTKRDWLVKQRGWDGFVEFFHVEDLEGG
T2 sequence (P10415 1-218 limits assumed): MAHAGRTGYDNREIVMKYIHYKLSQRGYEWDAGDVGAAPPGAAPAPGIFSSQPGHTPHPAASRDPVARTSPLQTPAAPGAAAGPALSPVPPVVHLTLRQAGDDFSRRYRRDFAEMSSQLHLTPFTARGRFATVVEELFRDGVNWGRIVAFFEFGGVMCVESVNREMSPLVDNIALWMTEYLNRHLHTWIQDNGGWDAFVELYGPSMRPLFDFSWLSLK

Compound | cytochrome c release (CLL mitochondria) | displacement of BIM BH3 from MCL-1 (GST-MCL-1) | cytochrome c release by peptide alone (mouse liver mitochondria) | percent killing by Annexin-V staining [1] | mitochondrial sensitivity to BH3 peptide (SU-DHL6) | displacement of BIM BH3 from BCL-2 (GST-BCL-2) | cytochrome c release (leukemic mitochondria) | BAX oligomerization (BAX) | mitochondrial sensitivity to BH3 peptide (SU-DHL8) | cell sensitivity to the agent [2]
BH3 domain peptide of murine NOXA, AELPPEFAAQLRKIGDKVYC (SEQ ID NO: 6) [NOXA A] | do not | efficiently displaces BIM from MCL-1 | none of the sensitizer BH3 peptides by themselves can induce cytochrome c release significantly above background | significantly greater than that with BAD | weaker, but definite, response |  |  |  |  | 
CSCC[C@H](NC(=O)[C@H](CCCNC(=N)N)NC(=O)[C@H](CCCNC(=N)N)NC(=O)[C@H](CC(C)C)NC(=O)[C@H](CCC(=O)O)NC(=O)[C@H](CCCNC(=N)N)NC(=O)CNC(=O)[C@H](Cc1ccc(O)cc1)NC(=O)[C@H](CCCNC(=N)N)NC(=O)[C@H](CCC(N)=O)NC(=O)[C@H](C)NC(=O)[C@H](C)NC(=O)[C@H](Cc1c[nH]c2ccccc12)NC(=O)[C@H](CC(C)C)NC(=O)CCCCCNC(=S)Nc1ccc2c(c1)C(=O)OC21c2ccc(O)cc2Oc2cc(O)ccc21)C(=O)N[C@@H](CO)C(=O)N[C@@H](CC(=O)O)C(=O)N[C@@H](CCC(=O)O)C(=O)N[C@@H](Cc1ccccc1)C(=O)N[C@@H](CCC(=O)O)C(=O)NCC(=O)N[C@@H](CO)C(=O)N[C@@H](Cc1ccccc1)C(=O)N[C@@H](CCCCN)C(=O)NCC(=O)N[C@@H](CC(C)C)C(=O)O [BAD] | induce cytochrome c release |  | none of the sensitizer BH3 peptides by themselves can induce cytochrome c release significantly above background |  | weaker, but definite, response | efficiently displaces BIM BH3 from BCL-2 | capable of inducing near total cytochrome c release | results in BAX oligomerization |  | 
CC[C@H](C)[C@H](NC(=O)[C@H](CCC(=O)O)NC(=O)[C@H](CCCNC(=N)N)NC(=O)[C@H](C)NC(=O)[C@H](Cc1c[nH]c2ccccc12)NC(=O)[C@H](CCC(N)=O)NC(=O)[C@H](CCC(=O)O)NC(=O)CCCCCNC(=S)Nc1ccc2c(c1)C(=O)OC21c2ccc(O)cc2Oc2cc(O)ccc21)C(=O)NCC(=O)N[C@@H](C)C(=O)N[C@@H](CCC(N)=O)C(=O)N[C@@H](CC(C)C)C(=O)N[C@@H](CCCNC(=N)N)C(=O)N[C@@H](CCCNC(=N)N)C(=O)N[C@@H](CCSC)C(=O)N[C@@H](C)C(=O)N[C@@H](CC(=O)O)C(=O)N[C@@H](CC(=O)O)C(=O)N[C@@H](CC(C)C)C(=O)N[C@@H](CC(N)=O)C(=O)N[C@@H](C)C(=O)O [PUMA] | induce cytochrome c release |  | none of the sensitizer BH3 peptides by themselves can induce cytochrome c release significantly above background |  | strong |  | capable of inducing near total cytochrome c release |  | limited response | 
CC[C@]1(O)C[C@H]2CN(CCc3c([nH]c4ccccc34)[C@@](C(=O)OC)(c3cc4c(cc3OC)N(C=O)[C@H]3[C@@](O)(C(=O)OC)[C@H](OC(C)=O)[C@]5(CC)C=CCN6CC[C@]43[C@@H]65)C2)C1 [vincristine] |  |  |  |  |  |  |  |  |  | SU-DHL4 and SU-DHL6 were the most sensitive cell lines
